Measured values taken from ChEMBL document CHEMBL4411307, “N,N'-diaryl-bishydrazones in a biphenyl platform: Broad spectrum antifungal agents” (Eur J Med Chem, 2019).
Converted amounts (≈) assume the structure as drawn. The source made the active and inactive calls. The calls are words filed in the database; no cut-off is given here.

Columns and labels:
Listeria monocytogenes = test: Antibacterial activity against Listeria monocytogenes; assay type: functional, organism-based
Staphylococcus aureus = test: Antibacterial activity against methicillin-resistant Staphylococcus aureus; assay type: functional, organism-based
Enterococcus = test: Antibacterial activity against vancomycin-resistant Enterococcus; assay type: functional, organism-based
Candida albicans [1] = test: Antifungal activity against fluconazole/ITC-resistant Candida albicans ATCC 10231 measured after 48 hrs by CLSI M27-A3 protocol based method; assay type: functional; conditions: ATCC 10231, 48 h
Candida albicans [2] = test: Antifungal activity against fluconazole/ITC-resistant Candida albicans ATCC 64124 measured after 48 hrs by CLSI M27-A3 protocol based method; assay type: functional; conditions: ATCC 64124, 48 h
Candida albicans [3] = test: Antifungal activity against fluconazole/ITC-susceptible Candida albicans ATCC MYA-2876 measured after 48 hrs by CLSI M27-A3 protocol based method; assay type: functional; conditions: ATCC MYA-2876, 48 h
Candida albicans [4] = test: Antifungal activity against fluconazole/ITC-resistant Candida albicans ATCC 90819 measured after 48 hrs by CLSI M27-A3 protocol based method; assay type: functional; conditions: ATCC 90819, 48 h
Candida albicans [5] = test: Antifungal activity against fluconazole/ITC-susceptible Candida albicans ATCC MYA-2310 measured after 48 hrs by CLSI M27-A3 protocol based method; assay type: functional; conditions: ATCC MYA-2310, 48 h
Candida albicans [6] = test: Antifungal activity against fluconazole/ITC-resistant Candida albicans ATCC MYA-1237 measured after 48 hrs by CLSI M27-A3 protocol based method; assay type: functional; conditions: ATCC MYA-1237, 48 h
Candida albicans [7] = test: Antifungal activity against fluconazole/ITC-resistant Candida albicans ATCC MYA-1003 measured after 48 hrs by CLSI M27-A3 protocol based method; assay type: functional; conditions: ATCC MYA-1003, 48 h
Nakaseomyces glabratus = test: Antifungal activity against Candida glabrata ATCC 2001 measured after 48 hrs by CLSI M27-A3 protocol based method; assay type: functional; conditions: CBS 138, 48 h
Pichia kudriavzevii = test: Antifungal activity against Candida krusei ATCC 6258 measured after 48 hrs by CLSI M27-A3 protocol based method; assay type: functional; conditions: ATCC 6258, 48 h
Candida parapsilosis = test: Antifungal activity against Candida parapsilosis ATCC 22019 measured after 48 hrs by CLSI M27-A3 protocol based method; assay type: functional; conditions: Lodderomyces parapsilosis, ATCC 22019, 48 h
Aspergillus flavus = test: Antifungal activity against Aspergillus flavus ATCC MYA-3631 measured after 48 hrs by CLSI M38-A2 protocol based method; assay type: functional; conditions: ATCC MYA-3631, 48 h
Aspergillus nidulans = test: Antifungal activity against Aspergillus nidulans ATCC 38163 measured after 48 hrs by CLSI M38-A2 protocol based method; assay type: functional; conditions: ATCC 38163, 48 h
Aspergillus terreus = test: Antifungal activity against Aspergillus terreus ATCC MYA-3633 measured after 48 hrs by CLSI M38-A2 protocol based method; assay type: functional; conditions: ATCC MYA-3633, 48 h

SMILES | Activity (Listeria monocytogenes) | Activity (Staphylococcus aureus) | Activity (Enterococcus) | MIC (Candida albicans [1]) [µg/mL] | MIC (Candida albicans [2]) [µg/mL] | MIC (Candida albicans [3]) [µg/mL] | MIC (Candida albicans [4]) [µg/mL] | MIC (Candida albicans [5]) [µg/mL] | MIC (Candida albicans [6]) [µg/mL] | MIC (Candida albicans [7]) [µg/mL] | MIC (Nakaseomyces glabratus) [µg/mL] | MIC (Pichia kudriavzevii) [µg/mL] | MIC (Candida parapsilosis) [µg/mL] | MIC (Aspergillus flavus) [µg/mL] | MIC (Aspergillus nidulans) [µg/mL] | MIC (Aspergillus terreus) [µg/mL]
Brc1ccc(N/N=C/c2ccc(-c3ccc(/C=N/Nc4ccc(Br)cc4)cc3)cc2)cc1 | inactive | inactive | inactive | > 31.3 | > 31.3 | > 31.3 | > 31.3 | > 31.3 | > 31.3 | > 31.3 | > 31.3 | > 31.3 | 31.3 (≈ 57.1 µM) | > 31.3 | > 31.3 | > 31.3
Fc1ccc(N/N=C/c2ccc(-c3ccc(/C=N/Nc4ccc(F)cc4F)cc3)cc2)c(F)c1 | inactive | inactive | inactive | 7.8 (≈ 16.9 µM) | > 31.3 | > 31.3 | 31.3 (≈ 67.7 µM) | > 31.3 | > 31.3 | > 31.3 | > 31.3 | > 31.3 | > 31.3 | > 31.3 | > 31.3 | > 31.3
Clc1ccc(N/N=C/c2ccc(-c3ccc(/C=N/Nc4ccc(Cl)cc4)cc3)cc2)cc1 | inactive | inactive | inactive | > 31.3 | > 31.3 | > 31.3 | > 31.3 | > 31.3 | > 31.3 | > 31.3 | > 31.3 | 31.3 (≈ 68.1 µM) | 31.3 (≈ 68.1 µM) | > 31.3 | > 31.3 | 31.3 (≈ 68.1 µM)
N#Cc1ccc(N/N=C/c2ccc(-c3ccc(/C=N/Nc4ccc(C#N)cc4)cc3)cc2)cc1 | inactive | inactive | inactive | > 31.3 | > 31.3 | > 31.3 | > 31.3 | > 31.3 | > 31.3 | 31.3 (≈ 71.1 µM) | > 31.3 | > 31.3 | > 31.3 | > 31.3 | > 31.3 | 31.3 (≈ 71.1 µM)
Clc1ccc(N/N=C/c2ccc(-c3cccc(/C=N/Nc4ccc(Cl)cc4)c3)cc2)cc1 | inactive | inactive | inactive | 7.8 (≈ 17 µM) | 7.8 (≈ 17 µM) | 15.6 (≈ 34 µM) | 15.6 (≈ 34 µM) | 31.3 (≈ 68.1 µM) | 15.6 (≈ 34 µM) | 3.9 (≈ 8.49 µM) | 15.6 (≈ 34 µM) | 31.3 (≈ 68.1 µM) | 3.9 (≈ 8.49 µM) | > 31.3 | > 31.3 | > 31.3
CC[C@H](C)C[C@H](C)CCCCCCCCC(=O)N[C@H]1C[C@@H](O)[C@@H](NCCN)NC(=O)[C@@H]2[C@@H](O)CCN2C(=O)[C@H]([C@H](O)CCN)NC(=O)[C@H]([C@H](O)[C@@H](O)c2ccc(O)cc2)NC(=O)[C@@H]2C[C@@H](O)CN2C(=O)[C@H]([C@@H](C)O)NC1=O [CASPOFUNGIN] | – | – | – | 0.975 (≈ 0.892 µM) | 0.24 (≈ 0.22 µM) | 0.06 (≈ 0.0549 µM) | 0.12 (≈ 0.11 µM) | 0.12 (≈ 0.11 µM) | 0.24 (≈ 0.22 µM) | 0.48 (≈ 0.439 µM) | 0.06 (≈ 0.0549 µM) | 0.48 (≈ 0.439 µM) | 1.95 (≈ 1.78 µM) | > 31.3 | > 31.3 | > 31.3
N=C(N)N/N=C/c1ccc(-c2ccc(/C=N/NC(=N)N)cc2)cc1 | – | – | – | 31.3 (≈ 97.1 µM) | > 31.3 | > 31.3 | > 31.3 | > 31.3 | > 31.3 | 15.6 (≈ 48.4 µM) | > 31.3 | 15.6 (≈ 48.4 µM) | 3.9 (≈ 12.1 µM) | > 31.3 | > 31.3 | > 31.3
